# “Also recorded” adds a separate entry of the source. Where two headings read alike, the source gives them in different places.
# Tests used:
# Format in all cases: physicochemical
# [1] = Solid form stability under stressed conditions (wet, dry, high humidity) by XRPD; conditions: for Dry_XRPD pattern: dry (45° C. under vacuum); for Humid_XRPD pattern: high humidity (RH >95%); for Wet_XRPD pattern: wet
# Procedure: The solid form stability of each salt was studied by XRPD under stressed conditions: wet, dry (45° C. under vacuum) and high humidity (RH >95%).
# [2] = Solid form stability of salts in different solvents (slurry, XRPD); conditions: 48 hours, room temperature
# Procedure: Three salts were studied for solid form stability in water (disproportionation test), methanol, acetonitrile, and acetone:water (9:1) for 48 hours at room temperature.
# [3] = Solid form stability at 40° C. and 75% humidity; conditions: 40° C. and 75% RH for seven days
# Procedure: Solid form stability studies of β-GPA fumarate, succinate, and oxalate were carried out at 40° C. and 75% RH for seven days. Around 30 mg of the salts were placed in 4 mL vials which were placed in a saturated solution of sodium chloride (2 mL) with lids closed at 40° C. […]
# [4] = Dynamic vapor sorption (DVS) with XRPD of the post-DVS sample; conditions: for solid form by XRPD after the DVS experiment: post DVS sample
# Procedure: Samples were analyzed using an Aquadyne DVS-2 gravimetric water sorption analyzer. The relative humidity was adjusted between 2-95% and the weight of the sample was continuously monitored and recorded.
# […]: β-GPA maleate (1:1) Form II, β-GPA fumarate (1:1), β-GPA maleate (2:1), β-GPA succinate (2:1) and β-GPA oxalate (1:1) were analyzed by DVS experiment followed by XRPD analysis of the sample at the end of the experiment.
# Sample 2162-64-1 was analyzed by DVS in triplicate and the post DVS samples were characterized by XRPD to identify the form at the end of the experiment.
# [5] = Flowability measurement using Hanson Flodex unit; conditions: summary of density and Flodex measurements
# Source text: Method: A cylindrical vessel is secured to the stand and above that a funnel is also secured such that the bottom of the funnel is close to the vessel. A powder load of ≈50-60 g is then poured through the funnel into the middle of the cylinder. The lever device is pulled to open the hole in the disk quickly and without vibration. If a powder slowly flows through the small-diameter holes, leaving a cavity shaped like an upside-down, truncated cone, the test is considered positive. If a powder flocculates in bulk and falls abruptly, forming a cylindrical cavity, the test is considered negative. […] If the experiment is negative, the powder is tested again with a disk having a larger hole.
# [6] = water (disproportionation test)
stability in dry conditions [1],stability under high humidity conditions [1],Dry_XRPD pattern [1],Humid_XRPD pattern [1],Wet_XRPD pattern [1],SMILES,other results
stable,deliquesced,,,,CCS(=O)(=O)O.N=C(N)NCCC(=O)O [ethanesulfonic acid salt],
stable,stable,Pattern 7A,Pattern 7A,Pattern 7A,N=C(N)NCCC(=O)O.O=C(O)/C=C/C(=O)O [β-GPA fumarate (1:1)],"XRPD pattern after slurry ([2]; acetone:water (9:1)): retain their XRPD pattern; XRPD pattern after slurry ([2]; acetonitrile): retain their XRPD pattern; XRPD pattern after slurry ([2]; methanol): retain their XRPD pattern; XRPD pattern after slurry ([2]; water (disproportionation test), listed as 1:1 β-GPA fumarate): retained their XRPD pattern; solid form stability (XRPD) ([3]; listed as 1:1 fumarate salt): stable; moisture uptake during the DVS experiment ([4]; listed as 1:1 β-GPA fumarate): < 1%; solid form by XRPD after the DVS experiment ([4]; listed as 1:1 fumarate salt): no form change; solid form by XRPD after the DVS experiment ([4]; listed as 1:1 β-GPA fumarate): presence of β-GPA peaks along with Pattern 7A"
stable,deliquesced,Pattern 4A,Deliquesce,Pattern 4A,N=C(N)NCCC(=O)O.O=P(O)(O)O [β-GPA phosphate],

# Further lines, the molecule ahead of its results:
SMILES,stability in dry conditions [1],stability under high humidity conditions [1],Dry_XRPD pattern [1],Humid_XRPD pattern [1],Wet_XRPD pattern [1],other results
N=C(N)NCCC(=O)O.O=C(O)/C=C/C(=O)O [β-GPA fumarate],,,,,,"flow character from the experimental data [5]: excellent; XRPD pattern after slurry [2, 6]: retained their XRPD patterns; solid form stability (XRPD) [3]: retained their original XRPD pattern; also recorded: stable; solid form by XRPD after the DVS experiment [4]: retained their XRPD; also recorded: presence of two peaks from the β-GPA"
Cl.NC(N)=NCCC(=O)O [β-GPA hydrochloride],stable,deliquesced,Pattern 1A,Deliquesce,Pattern 1A,
N=C(N)NCCC(=O)O.O=C(O)C[C@H](O)C(=O)O [β-GPA malate (1:1)],stable,deliquesced,Pattern 12A,Deliquesce,Pattern 12A,
N=C(N)NCCC(=O)O.O=C(O)/C=C\C(=O)O [β-GPA maleate (1:1) Form II],,,Pattern 6D,Pattern 6D,Pattern 6D,"XRPD pattern after slurry ([2]; acetone:water (9:1)): matched with the original pattern of the salt (Pattern 6D) along with some additional peaks; XRPD pattern after slurry ([2]; acetonitrile): retain its XRPD pattern; XRPD pattern after slurry ([2]; methanol): retain its XRPD pattern; XRPD pattern after slurry [2, 6]: retained their XRPD patterns; moisture uptake during the DVS experiment [4]: ~25%; moisture uptake ([4]; at around 95% RH): around 25%; solid form by XRPD after the DVS experiment [4]: no form change"
N=C(N)NCCC(=O)O.O=C(O)/C=C\C(=O)O [β-GPA maleate (1:1) Form I],stable,stable,Pattern 6A,Pattern 6A,Pattern 6A,
N=C(N)NCCC(=O)O.N=C(N)NCCC(=O)O.O=C(O)/C=C\C(=O)O [β-GPA maleate (2:1)],,,Pattern 6C,Pattern 6B,Pattern 6B,
CS(=O)(=O)O.N=C(N)NCCC(=O)O [β-GPA methanesulfonate],stable,deliquesced,Pattern 19A,Deliquesce,Pattern 19A,
